Results from patent US11549123B2, “Plant EPSP synthases and methods of use” (PIONEER HI-BRED INTERNATIONAL, INC., priority 2015, dated 2023).

How the values were obtained:
Assay type in all cases: biochemical
[1] = molecular target: T1, Zea mays EPSPS variant Zm-H6 (868-H6) with V87T (H6-V87T) (Zea mays, UniProt O24566, A1R/A3W/A415G/A71Q/D401G/E301S/E390G/G101A/I207L/K83R/L97C/T278A/T360S/T440Q/V437R/V86T); test: Substrate saturation kinetic analysis with glyphosate, H6-V87T
T1 construct: 868-H6 plus V87T; E. coli BL21(DE3), Ni-NTA purified
T1 sequence (O24566 with tags, fused parts or gaps A1R/A3W/A71Q/K83R/V86T/L97C/G101A/I207L/T278A/E301S/T360S/E390G/D401G/A415G/V437R/T440Q): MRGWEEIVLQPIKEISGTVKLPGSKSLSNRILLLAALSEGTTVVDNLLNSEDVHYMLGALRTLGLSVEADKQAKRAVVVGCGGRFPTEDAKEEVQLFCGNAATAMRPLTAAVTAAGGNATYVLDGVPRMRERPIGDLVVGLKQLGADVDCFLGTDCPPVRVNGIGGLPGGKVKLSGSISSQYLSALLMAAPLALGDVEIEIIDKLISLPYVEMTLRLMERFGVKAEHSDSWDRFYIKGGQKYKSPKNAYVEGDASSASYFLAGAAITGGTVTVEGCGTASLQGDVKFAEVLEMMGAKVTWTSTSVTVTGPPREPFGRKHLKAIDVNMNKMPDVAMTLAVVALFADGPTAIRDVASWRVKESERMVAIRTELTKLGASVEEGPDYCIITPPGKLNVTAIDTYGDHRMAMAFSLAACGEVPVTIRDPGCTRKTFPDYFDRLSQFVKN

[2] = molecular target: T2, Zea mays EPSPS variant Zm-P107S (Zea mays, UniProt O24566, P106S); test: Rapid two-rate method for (kcat/KM)*KI, Zm-P107S
T2 construct: native maize plus P107S; E. coli BL21(DE3), Ni-NTA purified
T2 sequence (O24566 with tags, fused parts or gaps P106S): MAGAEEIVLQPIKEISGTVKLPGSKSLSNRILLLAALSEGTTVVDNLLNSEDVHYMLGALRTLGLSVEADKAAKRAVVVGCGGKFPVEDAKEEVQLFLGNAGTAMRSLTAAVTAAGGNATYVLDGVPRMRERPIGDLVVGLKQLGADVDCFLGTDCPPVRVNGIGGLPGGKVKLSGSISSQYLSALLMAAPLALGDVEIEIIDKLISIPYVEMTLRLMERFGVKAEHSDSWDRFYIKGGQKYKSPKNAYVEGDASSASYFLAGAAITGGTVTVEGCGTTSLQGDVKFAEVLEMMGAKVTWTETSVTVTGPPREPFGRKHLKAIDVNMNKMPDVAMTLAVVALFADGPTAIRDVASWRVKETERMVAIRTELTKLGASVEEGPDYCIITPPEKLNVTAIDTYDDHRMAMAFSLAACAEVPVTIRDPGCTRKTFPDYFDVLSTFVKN
Source text: There are several practical considerations for accurately estimating (kcat/KM)*KI with the rapid method. […] 2) The inhibitor concentration must be adjusted so as to obtain a degree of inhibition that minimally amplifies the error in the term v0-vi in Equation 3. If inhibition is too little, v0-vi will be small, and the error in the multiplier vi×v0/(v0-vi) will be large. […] 3) Substrate concentration should be set at the approximate KM of the parental variant(s), subject to the sensitivity of the assay. High substrate concentration obscures sensitivity to the inhibitor and reduces stringency for capturing improvements in KM. Depending on the necessity for speed, there exists opportunity for customizing enzyme and inhibitor concentrations. […] The rapid method was repeated for those and obtained data that correlated better with data obtained by substrate saturation analysis. For screening purposes however, that correlation step is not necessary. Conditions can be set so that variants with a pre-determined minimal fitness level are accurately quantified.
In Table 15, parameters above the heavy line for the rapid method were obtained under standard conditions. For variants shown below the heavy line, the rapid analysis was repeated with enzyme or glyphosate concentrations adjusted as needed to generate sufficient signal within the limits for linear initial rates.

[3] = molecular target: Zea mays EPSPS variant WT-FS-D (101S 107L 302S 338S) (Zea mays, UniProt O24566, A100S/A337S/E301S/P106L); test: EPSPS substrate saturation kinetics, WT-FS-D
Method: EPSPS activity was determined by quantifying the phosphate generated from the EPSPS reaction. Release of inorganic phosphate was coupled to reaction with 2-amino-6-mercapto-7-methylpurine ribonucleoside, catalyzed by purine-nucleoside phosphorylase (M R Webb, Proc. Natl. Acad. Sci. 89:4884-4887, 1992). The absorbance change that occurs was monitored at 360 nm, where the extinction is 11,200 M^−1 cm^−1, with a Spectramax plate reader (Molecular Devices). To determine kinetic parameters, the varied substrate was present at seven concentrations (the eighth being the blank, containing no substrate) ranging from 4 to 400 uM and the unvaried substrate present at saturation. […] Reactions were monitored with a Spectramax plate reader. […] KI was then calculated from the following form of the Michaelis-Menten equation for competitive inhibition: KI=KM[I]/(KM app−KM) KM approximates the dissociation constant of the enzyme-substrate complex while kcat is the rate of conversion of substrate to product when the substrate concentration is saturating. kcat/KM is a widely accepted parameter for catalytic efficiency when substrate concentration is low (˜KM). […] The parameter kcat/KM×KI is used to quantify both catalytic efficiency and insensitivity and thus the overall fitness of the enzyme. […]

Zea mays EPSPS variant WT-FS-D (101S 107L 302S 338S), sequence (O24566 entry or part of it A100S/P106L/E301S/A337S): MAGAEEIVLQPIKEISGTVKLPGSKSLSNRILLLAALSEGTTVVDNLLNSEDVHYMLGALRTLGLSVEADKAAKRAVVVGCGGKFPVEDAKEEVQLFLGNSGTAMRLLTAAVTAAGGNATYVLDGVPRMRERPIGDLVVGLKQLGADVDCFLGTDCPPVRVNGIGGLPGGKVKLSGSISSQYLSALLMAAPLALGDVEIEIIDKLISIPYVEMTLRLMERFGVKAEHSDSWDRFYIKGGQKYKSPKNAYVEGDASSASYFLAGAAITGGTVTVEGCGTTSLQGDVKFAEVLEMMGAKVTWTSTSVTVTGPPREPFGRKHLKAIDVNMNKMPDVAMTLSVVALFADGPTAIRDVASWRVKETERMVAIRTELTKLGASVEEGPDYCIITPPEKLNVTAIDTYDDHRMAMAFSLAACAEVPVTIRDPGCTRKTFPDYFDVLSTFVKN

## O=C(O)CNCP(=O)(O)O [glyphosate, N-phosphonomethylglycine]
[1]
  Ki: 348 µM
[1]; substrate saturation, H6-V87T
  (kcat/KM)*KI: 3280
[2]; rapid method repeated, [E] 0.007 uM, [Gly] 5 uM
  (kcat/KM)*KI: 40
[2]; rapid method, [E] 0.07 uM, [Gly] 1000 uM
  (kcat/KM)*KI: 72
[3]
  Ki: 3.81 µM
[3]; PEP as substrate, glyphosate as inhibitor
  (kcat/KM)*KI: 346
